# Source: patent US20050244897A1, “Endothelial cells as diagnostic instrument in cardiovascular diseases” (priority 2002, published 2005)
# Legend:
# [1] = system: circulating apoptotic ECs; experiment: Flow cytometry (FACS) of circulating apoptotic ECs in peripheral blood of patients with stable angina treated prospectively; type: in vivo, human
# Procedure: (§1) In addition, 8 patients with stable angina were prospectively treated with atorvastatin (20 mg/day, four weeks).
# The lysis of erythrocytes in 10 ml peripheral venous heparin blood was performed with the aid of a commercially available solution for lysis (Becton Dickinson, BD). The circulating ECs were then examined by means of 4-channel-FACS (Fluorescence Activated Cell Sorting)-analysis, using a suitably modified protocol according to the method of Mancuso et al. and Monestiroli et al. (Mancuso P., Burlini A., Pruneri G., Goldhirsch A., Martinelli G., Bertolini F. Blood. 2001; 97: 3658-3661; Monestiroli S., Mancuso P., Burlini A., Pruneri G., Dell'Agnola C., Gobbi A., Martinelli G., Bertolini F. Cancer Res. 2001; 61: 4341-4344) (FIG. 1). First, in the representation of the forward/sideward-scatter a regional window was defined, in order to exclude platelets and debris from the further analyses. Amongst the remaining cells, the number of the CD45^+-signals that were identified with a direct perCP-conjugated monoclonal antibody against human CD45 (BD) was quantified, in order to normalise each measured cellular population in view of the total number of the leukocytes in relation to the number of WBCs. In order to specifically detect mature ECs, only CD45^−-cells were analysed further by double staining with antibodies against the EC-specific epitope CD146 (MeI-CAM, MUC18, S-Endo-1; Shih I. M. J Pathol. 1999; 189: 4-11) (monoclonal mouse-antibody, directly FITC-conjugated; Chemicon) and against von Willebrandt-factor (vWF) (rabbit, Oncogene), followed by a PE-conjugated anti-rabbit secondary antibody. Alternatively, human KDR was detected with an anti-KDR-antibody of the mouse (Sigma), followed by a PE-conjugated anti-mouse secondary antibody in addition to vWF. CD45^−/CD146^+/vWF^+ or CD45^−/KDR^+/vWF^+-cells were defined as mature ECs. […]
# [2] = system: LDL-cholesterol; experiment: Serum lipid fractions (LDL-cholesterol) in patients with stable angina before and after treatment; type: in vivo, human
# Procedure: as §1
# In all patients serum was also collected at the time of examination for a determination of the concentrations of CRP and hsCRP (turbidimetric assay, Boehringer Mannheim and Ultrasensitive N Latex CRP Monotest, Behring, respectively) as well as serum lipid-fractions (Boehringer Mannheim).
# Thus, it was prospectively examined whether a short-term treatment with atorvastatin (20 mg/day, four weeks) reduces the EC-apoptosis in patients with stable CAD.
structure (smiles),measurement,setting,value
CC(C)c1c(C(=O)Nc2ccccc2)c(-c2ccccc2)c(-c2ccc(F)cc2)n1CC[C@@H](O)C[C@@H](O)CC(=O)O [atorvastatin],EC-apoptosis,"[1]; patients with CAD, four week treatment period",profoundly reduces
same,number of circulating apoptotic ECs,"[1]; patients with stable CAD (SA), n=8, 20 mg/day, four weeks, FIG. 3A",significantly reduced
same,proportion of apoptotic ECs of the total number of circulating ECs,"[1]; patients with stable CAD (SA), n=8, 20 mg/day, four weeks, FIG. 3B",significantly reduced
same,LDL-cholesterol (mg/dl) post,"[2]; n=8 patients with stable angina, after 20 mg/day for four weeks, pre value 155 ± 16, mean ± SEM",86 ± 13 mg/dL
same,concentration of LDL-cholesterol,"[2]; patients with stable CAD, 20 mg/day, four weeks, p<0.02",significantly reduced
